Laboratory results published in patent US20250312497A1, “METHOD OF TREATING PROSTATE CANCER” (Novartis AG, priority 2022, published 2025).
“And” between values parts separate entries of the source, which are not always exact repeats. Equal entries are not always repeated.

What was measured:
[1] = test system: PSMA-positive metastatic castration-resistant prostate cancer (mCRPC); assay: PSMAfore phase III: radiographic progression-free survival (rPFS) by blinded independent central review per PCWG3; format: in vivo, human
Method: Radiographic progression-free survival (rPFS) based on independent central review as per PCWG3 criteria is the primary endpoint and overall survival (OS) is the key secondary endpoint for the study. The statistical design of the study is such that, to be declared positive, the study would be required to reach statistical significance on the primary analysis of rPFS.
The primary analysis of rPFS and the first interim analysis of OS were performed using all patients randomized on or before the data cutoff date of 2 Oct. 2022 using a one-sided alpha level of 2.5%. One randomized and treated patient was excluded from Full Analysis Set due to informed consent not obtained per due process (INCL1A PD).

[2] = test system: PSMA-positive metastatic castration-resistant prostate cancer (mCRPC); assay: PSMAfore phase III: best overall radiological response (soft tissue and bone) by BICR; format: in vivo, human; conditions: results update
Method: Best overall radiological response accounting for soft tissue and bone disease based on BICR (Recist analysis set—participants with measurable disease at baseline)
Responses are based on soft tissue assessment and bone lesion progression. Best overall responses of CR and PR were confirmed by repeat assessments that were performed not less than 4 weeks after the criteria for response were first met.
CR may include participants with residual but non-progressive bone disease.

[3] = test system: PSMA-positive metastatic castration-resistant prostate cancer (mCRPC); assay: PSMAfore phase III: radiographic progression-free survival (rPFS) by blinded independent central review per PCWG3; format: in vivo, human; remark: listed apart in the source
[4] = test system: PSMA-positive metastatic castration-resistant prostate cancer; conditions: cited from earlier work
[5] = DCO 2 Oct 2022, full analysis set
[6] = primary analysis DCO 2 Oct 2022, most recent central vendor data (results update)
[7] = Recist analysis set, measurable disease at baseline, BICR
[8] = DCO 21 Jun 2023, full analysis set

O=C([O-])CN1CCN(CC(=O)[O-])CCN(CC(=O)NCC2CCC(C(=O)N[C@@H](Cc3ccc4ccccc4c3)C(=O)NCCCC[C@H](NC(=O)N[C@@H](CCC(=O)O)C(=O)O)C(=O)O)CC2)CCN(CC(=O)[O-])CC1.[177Lu+3] (stereo partly shown) [[177Lu]Lu-PSMA-617, lutetium (177Lu) vipivotide tetraxetan]
rPFS events: Death without radiographic progression [1, 5]: 6 (2.6) n(%)
rPFS events: Radiographic progression [1, 5]: 55 (23.6) n(%)
rPFS: Number of events [1, 5]: 61 (26.2%) n(%) and 61 (26.2) n(%)
risk reduction (rPFS) compared to ARDT arm [1, 5]: 58%
rPFS 75th percentile (95% CI) ([1]; DCO 2 Oct 2022, full analysis set, Kaplan-Meier): NE [11.96, NE]
estimated rPFS probability (95% CI) at 6 months [1, 6]: 69.0%
rPFS: Number of events [1, 6]: 60 (25.8%) n (%)
Best overall response: Complete response (CR) [2, 7]: 15 (21.1) n (%)
Best overall response: Partial response (PR) [2, 7]: 20 (28.2) n (%)
Best overall response: Progressive disease (PD) [2, 7]: 14 (19.7) n (%)
Best overall response: Unknown (UNK) [2, 7]: 2 (2.8) n (%)
Disease Control Rate (DCR: CR + PR + SD) [2, 7]: 55 (77.5) n (%)
Overall Response Rate (ORR: CR + PR) [2, 7]: 35 (49.3) n (%)
rDCR compared to ARDT [2]: a higher rDCR compared to ARDT
rORR compared to ARDT [2]: at least three times higher rORR compared to ARDT
rPFS events: Death without radiographic progression [3, 8]: 10 (4.3) n(%)
rPFS events: Radiographic progression [3, 8]: 105 (44.9) n(%)
rPFS: Number of events [3, 8]: 115 (49.1%) n(%) and 115 (49.1) n(%)
risk reduction (rPFS) compared to ARDT arm ([3]; updated exploratory analysis DCO 21 Jun 2023): 57%
complete response ([4]; RECIST 1.1 measurable target lesions, 17 of 184 patients): 9.2%
partial response ([4]; RECIST 1.1 measurable target lesions, 77 patients): 41.8%
median imaging-based progression-free survival ([4]; plus standard care, vs 3.4 months standard care): 8.7 months
median overall survival ([4]; plus standard care, vs 11.3 months standard care): 15.3 months
hazard ratio for death ([4]; vs standard care, 95% CI 0.52 to 0.74): 0.62
hazard ratio for progression or death ([4]; vs standard care, 99.2% CI 0.29 to 0.57): 0.40
